In article PMC5855545, “Role of Disulfide Bonds in Activity and Stability of Tigerinin-1R” (International Journal of Molecular Sciences, 2018):
“Also recorded” adds a separate entry of the source. Blank lines part the entries; values can stand above or below the compound they belong to.

Experiments:
[1] = tested on: INS-1 cells; experiment: Protection against palmitic acid-induced apoptosis (MTT viability); type: cell-based, rat; settings: 0.5 mM PA, 24 h
Experimental: Solutions of free fatty acids (FFAs) were prepared. Briefly, 100 mM palmitic acid (PA) stocks (Sigma, St. Louis, MO, USA) were prepared in 0.1 M NaOH at 70 °C. Ten percent (w/v) FFA-free BSA (Roche, Mannheim, Germany) solution was prepared in PBS buffer. A 5 mM FFA/10% BSA solution was prepared by mixing 50 μL FFA to 950 μL 10% BSA in a 60 °C water bath. The above solution was then cooled to room temperature, diluted in RPMI 1640 to 0.5 mM and filtered. Cells were added into 96-well plates (5 × 10^3 cells/well). Complete medium was withdrawn after overnight incubation at 37 °C. One hundred microliters of different peptides corresponding to a serial dilution series (concentrations 10^−9, 10^−7, 10^−5 M) diluted with medium containing 0.5 mM PA, was added for another 24 h. Meanwhile, incubation in fresh medium, with or without PA, were set as positive and negative controls, respectively. At the end of incubation, 20 μL of MTT solution (5 mg/mL in PBS) was added to each well and further incubated at 37 °C for 4 h. Cell viability was determined by dissolving the crystallized MTT with dimethyl sulfoxide (150 μL/well).

[2] = tested on: INS-1 cells; experiment: Insulin-releasing activity in vitro (rat insulin ELISA); type: cell-based; settings: 2.8 mM glucose; for insulin release at 10^−5 M compared with tigerinin-1R: 10^−5 M peptide, 1 h in KRB buffer at 37 °C, triplicate
Experimental: INS-1 cells were harvested with trypsin/EDTA, seeded into 6-well plates (3–5 × 10^5 cells/well), and allowed to attach overnight. Prior to the test, cells were preincubated in 1 mL Krebs-Ringer bicarbonate (KRB) buffer without glucose (115 mMNaCl, 4.7 mMKCl, 1.28 mM CaCl2,1.2 mM KH2PO4, 1.2 mM MgSO4, 10 mM NaHCO3, and 1 g/L BSA, pH 7.4) at 37 °C for 45 min. Cells were then incubated in the absence or presence of peptides for 1 h, using the same buffer with 2.8 mM glucose. The insulin supernatants were collected, and subsequently analyzed using ultrasensitive rat insulin ELISA kits (Mercodia, Sweden). The assay was repeated in triplicate.

[3] = Reversed-phase HPLC retention time (relative hydrophobicity); type: physicochemical; settings: RP-HPLC at 25 °C; Zorbax 300 SB-C8 150 × 4.6 mm, linear AB gradient 1% acetonitrile/min, 1 mL/min, A 0.1% aqueous TFA pH 2, B 0.1% TFA in acetonitrile
[4] = Peptide degradation assay in 10% fetal bovine serum; type: in vitro ADME; settings: 200 μM peptide in PBS, 37 °C
Experimental: Peptides dissolved in PBS to a final concentration of 200 μM were incubated with 10% fetal bovine serum at 37 °C. At different time points (0, 60, and 120 min), 20 μL peptide samples were taken and diluted with an equal volume of 0.1% aqueous trifluoroacetic acid (TFA). The samples were then analyzed by RP-HPLC. The experiment was performed on a Shimadzu HPLC system with a Zorbax 300 SB-C8 column (150 × 4.6 mm I.D.; 5 µm particle size, 300 Å pore size; Agilent Technologies, Palo Alto, CA, USA) using a linear AB gradient (1% acetonitrile/min) and a flow rate of 1 mL/min, where solvent A was 0.1% aqueous TFA, pH 2, and solvent B was 0.1% TFA in acetonitrile at 25 °C.

[5] = tested on: bacteria; settings: cited from earlier work
Description: (§1) Tigerinin-1R (Arg–Val–Cys–Ser–Ala–Ile–Pro–Leu–Pro–Ile–Cys–His–NH2) is a cationic peptide containing a disulfide bond that is isolated from the skin secretions of Hoplobatrachus ugulosus. […] In vivo studies have shown that administration of tigerinin-1R or some of its analog ...

[6] = tested on: high-fat fed mice; settings: administration to high-fat fed mice; cited from earlier work
Description: as §1

[7] = tested on: INS-1 cells; experiment: Measurement of intracellular Ca2+ (Fluo-3 AM, confocal microscopy); type: cell-based, rat; settings: 10^−5 M peptide, 2.8 mM glucose; less than 30 mM KCl, significantly greater than glucose alone
Experimental: INS-1 cells (2 × 10^5) were cultured in glass bottom dishes (NEST, Wuxi, China). Following overnight culture, the cells were washed with KRB buffer three times, and then incubated with 5 μM fluorescent Ca^2+ probe Fluo-3 AM solution (Solarbio, Beijng, China). After loading for 30 min and washing three times with KRB buffer, cells were incubated for 15 min in the absence of Fluo-3 AM. KRB buffer supplemented with 2.8 mM glucose containing 10^−5 M peptide was then added. Images of cells were obtained by laser scanning confocal microscope (LSM710, Carl Zeiss, Oberkochen, Germany). The fluorescence was excited at 480 nm at 4 s intervals, and detected at 515 nm. Incubations in the presence of 2.8 mM glucose alone (negative control) or extra 30 mM KCl (positive control) were also carried out individually.

[8] = tested on: Kunming male mice; experiment: Glucose tolerance in vivo in overnight-fasted mice; design: species or system mouse; settings: n = 6
Experimental: Kunming male mice were housed individually in an air-conditioned room (22 ± 2 °C) with a 12 h light/12 h dark cycle, and were handled in accordance with the Guide for Care and Use of Laboratory Animals in China and approved by the animal ethics committee of Jilin University (Approval No. JLUSWLL003, Jilin, China; dated on 10 May 2017). Drinking water and standard laboratory chow were freely available. No adverse effects were observed following administration of the peptides. Age-matched groups (n = 6) of overnight-fasted mice received an intraperitoneal injection of either glucose (18 mmol/kg body weight), tigerinin-1R (75 nmol/kg body weight), or [C11K]tigerinin-1R (75 nmol/kg body weight) individually as control groups, and glucose in combination with tigerinin-1R or glucose in combination with [C11K]tigerinin-1R as experimental groups, respectively. All solutions were administered in 0.9% NaCl (5 mL/kg body weight). Blood samples were collected from the cut tip of the tail vein of conscious mice, before injection and at 15, 30, 60, and 120 min immediately after injection, and glucose was measured using a Sannuo stable blood glucose meter (Changsha, China) using corresponding test strips.

Compound: CCCCCCCCCCCCCCCC(=O)O [PA, palmitic acid]
viability of INS-1 cells with PA (positive control) [1]: 58.24%

tR (min), retention time during reversed-phase HPLC (relative hydrophobicity) [3]: 11.590 min
Compound: Ac-RVASAIPLPIAH-NH2 [tigerinin-linear]
insulin release at 10^−5 M compared with tigerinin-1R [2]: lower insulin-releasing activity than tigerinin-1R

stability: RP-HPLC peak area of intact peptide after 60 min ([4]; 60 min): decreased dramatically | stability: RP-HPLC peak area of intact peptide at/within 120 min [4]: almost disappeared
Compound: Ac-RVCSAIPLPIKH-NH2 [[C11K]tigerinin-1R]

Compound: CSAIPLPIC-amide (C–C) (disulfide) [tigerinin-cyclic, tigerinin-1R analog retaining only the cyclic moiety]
insulin release at 10^−5 M compared with tigerinin-1R [2]: decrease in insulin-releasing ability

Compound: RVCSAIPLPICH-amide (C–C) (disulfide) [tigerinin-1R, Arg–Val–Cys–Ser–Ala–Ile–Pro–Leu–Pro–Ile–Cys–His–NH2, cationic 12-mer peptide containing a disulfide bond, from frog skin secretions; parent peptide, synthesized here]
stability: RP-HPLC peak area of intact peptide at/within 120 min [4]: changed very little | antibacterial activity [5]: lacks antibacterial activity | insulin release and glucose tolerance in high-fat fed mice [6]: significantly enhanced insulin release and improved glucose tolerance | insulin secretion of INS-1 cells at different peptide concentrations ([2]; 10^−8 to 10^−5 M, 1 h in KRB buffer pH 7.4 at 37 °C, compared to 2.8 mM glucose alone, n = 3): concentration-dependent manner | tR (min), retention time during reversed-phase HPLC (relative hydrophobicity) [3]: 19.465 min | concentration of intracellular Ca2+ (Fluo-3 fluorescence) [7]: produced an increase in the concentration of intracellular Ca^2+ | plasma glucose concentrations after peptide alone ([8]; 75 nmol/kg peptide i.p. alone, without glucose injection): little change in plasma glucose concentrations | glucose tolerance / hypoglycemic ability (plasma glucose) ([8]; 75 nmol/kg peptide i.p. with glucose 18 mmol/kg, 15-120 min): improved glucose tolerance; also recorded: higher hypoglycemic ability than [C11K]tigerinin-1R
